We go through 5 cell lines from the supplement of paper PMC10307832.

Holding throughout (assay): relative viability (nuclei count vs DMSO), 5 days (fraction); higher = more cells survive
Compound in assay [1]: CC1=C(C=CC(=C1)[N+](=O)[O-])NS(=O)(=O)C2=C(C=CC(=C2)Cl)Cl [FH535] + N=C(N)NC(=N)NCCc1ccccc1 [Phenformin] (partner 250 µM)
The essentials:
(§1)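 Values are medians from duplicate plates. Each reflects relative viability, defined as the nuclei count of treated wells over that of vehicle wells. Lung cancer cell lines in 1536-well plates were pin-tool dosed one day after seeding with one drug alone or with a fixed anchor-drug dose plus five library-drug doses (not always all listed) in √10 steps, then fixed, stained and imaged at 4× after 5 days.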

Compound in assay [2]: CC1=C(C=CC(=C1)[N+](=O)[O-])NS(=O)(=O)C2=C(C=CC(=C2)Cl)Cl [FH535] + Nc1ncn([C@H]2C[C@H](O)[C@@H](CO)O2)c(=O)n1 [Decitabine] (partner 2 µM)
The essentials:
as §1

Compound in assay [3]: CC1=C(C=CC(=C1)[N+](=O)[O-])NS(=O)(=O)C2=C(C=CC(=C2)Cl)Cl [FH535] + C[C@]1(O)C[C@@H](c2nc(-c3ccc4ccc(-c5ccccc5)nc4c3)c3c(N)nccn32)C1 [Linsitinib] (partner 1 µM)
The essentials:
as §1

Compound in assay [4]: CC1=C(C=CC(=C1)[N+](=O)[O-])NS(=O)(=O)C2=C(C=CC(=C2)Cl)Cl [FH535] + CC(C)C[C@H](NC(=O)[C@H](Cc1ccccc1)NC(=O)c1cnccn1)B(O)O [Bortezomib] (partner 0.002 µM)
The essentials: as §1

Compound in assay [5]: CC1=C(C=CC(=C1)[N+](=O)[O-])NS(=O)(=O)C2=C(C=CC(=C2)Cl)Cl [FH535] + NC(=O)Nc1cc(-c2cccc(F)c2)sc1C(=O)N[C@H]1CCCNC1 [AZD7762] (partner 0.2 µM)
The essentials: as §1

On to NCI-H520, for which the relative viability in assay [1] (first compound 0.04 µM) was 0.36; in assay [1] (first compound 0.1265 µM), 0.611; in assay [1] (first compound 0.4 µM) it was 0.55; in assay [1] (first compound 1.265 µM), 0.429; in assay [2] (first compound 0.04 µM), 0.462; in assay [2] (first compound 0.1265 µM) it was 0.488. For the same cell line, the relative viability came out at 0.521 in assay [2] (first compound 0.4 µM); 0.355 in assay [2] (first compound 1.265 µM); 0.982 in assay [3] (first compound 0.04 µM); 0.959 in assay [3] (first compound 0.1265 µM); 0.915 in assay [3] (first compound 0.4 µM); 0.873 in assay [3] (first compound 1.265 µM). Besides, the relative viability in assay [4] (first compound 0.04 µM) turned out to be 0.304; in assay [4] (first compound 0.1265 µM) it was 0.239; in assay [4] (first compound 0.4 µM), 0.522; in assay [4] (first compound 1.265 µM), 0.601.
In the case of NCI-H522, the relative viability came out at 0.591 in assay [1] (first compound 0.04 µM); 0.575 in assay [1] (first compound 0.1265 µM); 0.621 in assay [1] (first compound 0.4 µM); 0.62 in assay [1] (first compound 1.265 µM); 0.588 in assay [2] (first compound 0.04 µM); 0.697 in assay [2] (first compound 0.1265 µM). Further, the relative viability in assay [2] (first compound 0.4 µM) amounted to 0.712; in assay [2] (first compound 1.265 µM), 0.698; in assay [5] (first compound 0.04 µM) it was 0.717; in assay [5] (first compound 0.1265 µM), 0.947; in assay [5] (first compound 0.4 µM), 0.688; in assay [5] (first compound 1.265 µM), 0.864.
With NCI-H661, the relative viability in assay [1] (first compound 0.04 µM) worked out at 0.302; in assay [1] (first compound 0.1265 µM), 0.294; in assay [1] (first compound 0.4 µM), 0.276; in assay [1] (first compound 1.265 µM), 0.234; in assay [2] (first compound 0.04 µM), 0.546; in assay [2] (first compound 0.1265 µM), 0.609. Besides, the relative viability turned out to be 0.566 in assay [2] (first compound 0.4 µM); 0.46 in assay [2] (first compound 1.265 µM); 0.521 in assay [3] (first compound 0.04 µM); 0.537 in assay [3] (first compound 0.1265 µM); 0.539 in assay [3] (first compound 0.4 µM); 0.493 in assay [3] (first compound 1.265 µM). Moreover, the relative viability in assay [4] (first compound 0.04 µM) is 0.735; in assay [4] (first compound 0.1265 µM), 0.839; in assay [4] (first compound 0.4 µM), 0.767; in assay [4] (first compound 1.265 µM) it was 0.532.
As for NCI-H1395, the relative viability was found to be 0.443 in assay [1] (first compound 0.04 µM); 0.448 in assay [1] (first compound 0.1265 µM); 0.396 in assay [1] (first compound 0.4 µM); 0.348 in assay [1] (first compound 1.265 µM); 0.632 in assay [2] (first compound 0.04 µM); 0.685 in assay [2] (first compound 0.1265 µM). The relative viability in assay [2] (first compound 0.4 µM) is 0.702; in assay [2] (first compound 1.265 µM) it was 0.653; in assay [3] (first compound 0.04 µM), 0.877; in assay [3] (first compound 0.1265 µM) it was 1.41; in assay [3] (first compound 0.4 µM), 1.07; in assay [3] (first compound 1.265 µM) it was 0.862. For the same cell line, the relative viability worked out at 0.381 in assay [5] (first compound 0.04 µM), 0.426 in assay [5] (first compound 0.1265 µM), 0.368 in assay [5] (first compound 0.4 µM) and 0.393 in assay [5] (first compound 1.265 µM).
As for NCI-H1650, the relative viability came to 0.365 in assay [1] (first compound 0.04 µM); 0.405 in assay [1] (first compound 0.1265 µM); 0.33 in assay [1] (first compound 0.4 µM); 0.201 in assay [1] (first compound 1.265 µM); 0.323 in assay [2] (first compound 0.04 µM); 0.427 in assay [2] (first compound 0.1265 µM). For the same cell line, the relative viability in assay [2] (first compound 0.4 µM) was 0.46; in assay [2] (first compound 1.265 µM), 0.442; in assay [4] (first compound 0.04 µM), 0.198; in assay [4] (first compound 0.1265 µM) it was 0.195; in assay [4] (first compound 0.4 µM) it was 0.184; in assay [4] (first compound 1.265 µM), 0.2.
